Results from ChEMBL document CHEMBL1201862, “PubChem BioAssay data set” (2004).
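Each compound was tested at five concentrations against cells in 96-well plates for 48 hours. GI50 = concentration required for 50% inhibition of growth.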 Activity calls are given as the source filed them. Rule as the data show it: active = GI50 up to about 1.1 µM and inactive = higher.

Columns and labels:
Assay in all cases: growth of human tumour cells (NCI), 48 h
786-0 = tested on: 786-0
OVCAR-5 = tested on: OVCAR-5
DU-145 = tested on: DU-145
A549 = tested on: A549
ACHN = tested on: ACHN
HCT-116 = tested on: HCT-116
MDA-MB-435 = tested on: MDA-MB-435
SF-268 = tested on: SF-268
SK-MEL-2 = tested on: SK-MEL-2
A498 = tested on: A498
MCF7 = tested on: MCF7
NCI/ADR-RES = tested on: NCI/ADR-RES
OVCAR-4 = tested on: OVCAR-4
CAKI-1 = tested on: CAKI-1
K562 = tested on: K562
SW-620 = tested on: SW-620
SNB-75 = tested on: SNB-75
M14 = tested on: M14
HOP-62 = tested on: HOP-62
COLO 205 = tested on: COLO 205

Measured: GI50

O=S(=O)(O)c1cc(/N=N/c2cc(S(=O)(=O)O)c3ccccc3c2O)ccc1/C=C/c1ccc(/N=N/c2cc(S(=O)(=O)O)c3ccccc3c2O)cc1S(=O)(=O)O
inactive: 786-0 > 684 µM | OVCAR-5 146 µM | DU-145 303 µM | A549 > 480 µM | ACHN > 483 µM | HCT-116 > 213 µM | MDA-MB-435 111 µM | SF-268 > 800 µM | SK-MEL-2 > 371 µM | A498 > 100 µM | MCF7 310 µM | NCI/ADR-RES 427 µM | OVCAR-4 > 86.5 µM | CAKI-1 > 574 µM | K562 30.1 µM | SW-620 > 605 µM | SNB-75 > 458 µM | M14 131 µM | HOP-62 > 668 µM

COC1(OC)CC(CO)(CNc2nc(N)nc(Cl)c2/C=N\O)C1
inactive: 786-0 44.2 µM | OVCAR-5 20.7 µM | DU-145 34.3 µM | A549 59.7 µM | ACHN 24.6 µM | HCT-116 50.4 µM | MDA-MB-435 31.5 µM | SF-268 > 100 µM | COLO 205 38.6 µM | A498 18.5 µM | MCF7 24.1 µM | NCI/ADR-RES 46 µM | OVCAR-4 29.5 µM | CAKI-1 57.4 µM | K562 17.7 µM | SW-620 > 100 µM | SNB-75 48.8 µM | HOP-62 23.2 µM

CC(C)(C)/C(=N\Nc1nc2ccccc2[nH]1)c1ccccn1
inactive: 786-0 > 100 µM | DU-145 95.9 µM | A549 > 100 µM | ACHN 81.3 µM | HCT-116 22.8 µM | MDA-MB-435 > 100 µM | SF-268 > 100 µM | COLO 205 33 µM | SK-MEL-2 > 100 µM | A498 > 100 µM | MCF7 24.9 µM | NCI/ADR-RES 65.3 µM | OVCAR-4 53.7 µM | CAKI-1 48.2 µM | K562 99.8 µM | SW-620 65.2 µM | M14 61 µM | HOP-62 > 100 µM

CCOC(=O)C1C(=O)CC(C)(O)C(C(=O)OCC)C1c1ccc(N(C)C)cc1 (centres undefined)
inactive: 786-0 > 100 µM | OVCAR-5 > 100 µM | DU-145 > 100 µM | A549 > 100 µM | ACHN > 100 µM | HCT-116 > 100 µM | MDA-MB-435 > 100 µM | SF-268 > 100 µM | COLO 205 > 100 µM | SK-MEL-2 > 100 µM | A498 > 100 µM | MCF7 > 100 µM | NCI/ADR-RES > 100 µM | OVCAR-4 > 100 µM | CAKI-1 > 100 µM | K562 > 100 µM | SW-620 > 100 µM | SNB-75 > 100 µM | HOP-62 > 100 µM

OCc1ccccc1O[C@H]1O[C@H](CO)[C@@H](O)[C@H](O)[C@H]1O
inactive: 786-0 > 100 µM | OVCAR-5 > 100 µM | DU-145 > 100 µM | A549 > 100 µM | ACHN > 100 µM | HCT-116 > 100 µM | MDA-MB-435 > 100 µM | SF-268 > 100 µM | COLO 205 > 100 µM | SK-MEL-2 > 100 µM | A498 > 100 µM | MCF7 > 100 µM | NCI/ADR-RES > 100 µM | OVCAR-4 > 100 µM | CAKI-1 > 100 µM | SW-620 > 100 µM | SNB-75 > 100 µM | M14 > 100 µM | HOP-62 > 100 µM

COc1ccc(N2C(=O)/C(=C\c3cccc(Oc4ccccc4)c3)S(=O)(=O)C2c2ccccc2)cc1 (centres undefined)
inactive: 786-0 18.1 µM | OVCAR-5 > 100 µM | DU-145 38.3 µM | A549 31.5 µM | ACHN 98.9 µM | HCT-116 20.4 µM | MDA-MB-435 19.8 µM | COLO 205 64.1 µM | SK-MEL-2 37.2 µM | A498 28.9 µM | MCF7 26 µM | NCI/ADR-RES 16.2 µM | OVCAR-4 28.6 µM | CAKI-1 68.4 µM | K562 16.4 µM | SW-620 60.8 µM | M14 38.8 µM | HOP-62 51.9 µM

O=C(Nc1nc(C23CC4CC(CC(C4)C2)C3)cs1)c1c(O)c2ccccc2[nH]c1=O
inactive: 786-0 > 100 µM | OVCAR-5 > 100 µM | DU-145 > 100 µM | A549 > 100 µM | ACHN > 100 µM | HCT-116 > 100 µM | MDA-MB-435 > 100 µM | SF-268 23.3 µM | COLO 205 > 100 µM | A498 > 100 µM | MCF7 > 100 µM | NCI/ADR-RES > 100 µM | OVCAR-4 60.5 µM | CAKI-1 > 100 µM | K562 > 100 µM | SW-620 > 100 µM | SNB-75 > 10 µM | HOP-62 > 100 µM

CCC1c2[nH]c3ccccc3c2C[C@H]2C(=O)NC(Cc3ccccc3)C(=O)N12 (some centres undefined)
inactive: 786-0 36 µM | OVCAR-5 25.2 µM | DU-145 40 µM | A549 30.1 µM | ACHN 30.5 µM | HCT-116 24.7 µM | MDA-MB-435 20.2 µM | SF-268 27.2 µM | COLO 205 20.6 µM | SK-MEL-2 20.9 µM | A498 38.5 µM | MCF7 34.9 µM | NCI/ADR-RES 29.8 µM | OVCAR-4 33.6 µM | CAKI-1 35.4 µM | K562 31.4 µM | SW-620 35.6 µM | M14 27.9 µM | HOP-62 34.8 µM

N#C/C(=C\c1cn(Cc2ccccc2)c2ccccc12)c1nn(-c2ccccc2)c(N)c1C#N
inactive: 786-0 7.83 µM | OVCAR-5 18.8 µM | DU-145 11.1 µM | A549 11.2 µM | ACHN 18.7 µM | HCT-116 16.4 µM | MDA-MB-435 20.6 µM | SF-268 24.9 µM | COLO 205 20.1 µM | SK-MEL-2 4.65 µM | A498 16.7 µM | MCF7 28.2 µM | NCI/ADR-RES 17.4 µM | OVCAR-4 3.24 µM | CAKI-1 17.4 µM | K562 24.3 µM | SW-620 14.8 µM | SNB-75 4.07 µM | M14 20.4 µM

CCN1CC2(COC)C(O)CC(OC)C34C5CC6(O)C(OC)C=C(C5C6OC(=O)c5ccc(OC)c(OC)c5)C(C(OC)C23)C14 (centres undefined)
inactive: 786-0 > 7.5 µM | OVCAR-5 > 7.5 µM | DU-145 > 7.5 µM | A549 > 7.5 µM | ACHN > 7.5 µM | HCT-116 > 7.5 µM | MDA-MB-435 > 7.5 µM | SF-268 > 7.5 µM | COLO 205 > 7.5 µM | SK-MEL-2 > 7.5 µM | A498 > 7.5 µM | MCF7 > 7.5 µM | NCI/ADR-RES > 7.5 µM | OVCAR-4 > 7.5 µM | CAKI-1 > 7.5 µM | K562 > 7.5 µM | SW-620 > 7.5 µM | SNB-75 4.51 µM | M14 > 7.5 µM

O=CC(NC(=O)N(CCCl)N=O)C(O)C(O)C(O)CO (centres undefined)
inactive: 786-0 56.6 µM | OVCAR-5 1140 µM | DU-145 553 µM | A549 753 µM | ACHN 346 µM | MDA-MB-435 774 µM | SF-268 114 µM | COLO 205 > 1250 µM | SK-MEL-2 718 µM | A498 1120 µM | MCF7 948 µM | NCI/ADR-RES 953 µM | OVCAR-4 > 449 µM | CAKI-1 798 µM | K562 575 µM | SW-620 832 µM | SNB-75 262 µM | M14 748 µM | HOP-62 136 µM

COc1ncnc2c1cnn2Cc1cn(COCC(O)CO)nn1 (centres undefined)
inactive: 786-0 > 100 µM | OVCAR-5 > 100 µM | DU-145 > 100 µM | A549 > 100 µM | ACHN > 100 µM | HCT-116 > 100 µM | MDA-MB-435 > 100 µM | SF-268 16.3 µM | COLO 205 > 100 µM | SK-MEL-2 > 100 µM | A498 > 100 µM | MCF7 > 100 µM | NCI/ADR-RES > 100 µM | OVCAR-4 > 100 µM | CAKI-1 > 100 µM | K562 > 100 µM | SW-620 > 100 µM | M14 > 100 µM | HOP-62 > 100 µM

Cc1nnc2n1-c1ccccc1-c1[nH]c3ccccc3c1C2
inactive: 786-0 83.8 µM | OVCAR-5 > 100 µM | DU-145 > 100 µM | A549 91 µM | ACHN 39.9 µM | HCT-116 54.8 µM | MDA-MB-435 60.1 µM | SF-268 > 100 µM | COLO 205 45 µM | A498 19.2 µM | MCF7 > 100 µM | NCI/ADR-RES 69.8 µM | OVCAR-4 45.2 µM | CAKI-1 51.1 µM | K562 24.2 µM | SW-620 > 100 µM | SNB-75 8.24 µM | M14 43.1 µM | HOP-62 58.9 µM

COc1c(O)cc2c3c(ccnc13)NC=C2
inactive: 786-0 41.9 µM | OVCAR-5 > 100 µM | DU-145 > 100 µM | A549 > 100 µM | ACHN 55.7 µM | HCT-116 76.9 µM | MDA-MB-435 > 100 µM | COLO 205 > 100 µM | SK-MEL-2 57.9 µM | A498 > 100 µM | MCF7 26.7 µM | NCI/ADR-RES > 100 µM | OVCAR-4 > 100 µM | CAKI-1 > 100 µM | K562 96.6 µM | SW-620 68.2 µM | M14 > 100 µM

COc1c(N2CCCCC2)c2c(=O)c3ccccc3oc2c2c3ccccc3n(C)c12
inactive: 786-0 > 100 µM | OVCAR-5 > 100 µM | DU-145 > 100 µM | A549 > 100 µM | ACHN > 100 µM | HCT-116 53.1 µM | MDA-MB-435 > 100 µM | SF-268 > 100 µM | COLO 205 26.2 µM | SK-MEL-2 > 100 µM | MCF7 29.7 µM | NCI/ADR-RES > 100 µM | OVCAR-4 > 100 µM | CAKI-1 > 100 µM | K562 58.2 µM | SW-620 > 100 µM | SNB-75 > 100 µM | M14 > 100 µM | HOP-62 > 100 µM
